Results reported in US8877748B2, “Heterocyclic fused anthraquinone derivatives, manufacturing method and pharmaceutical composition using thereof” (National Defense Medical Center, priority 2012, dated 2014).

Key:
NCI-H460 = assay: NCI one-dose screening, non-small cell lung cancer NCI-H460; type: cell-based, human; details: 10 μM
NCI-H522 = assay: NCI one-dose screening, non-small cell lung cancer NCI-H522; type: cell-based, human; details: 10 μM
U251 = assay: NCI one-dose screening, CNS cancer U251; type: cell-based, human; details: 10 μM
SF-268 = assay: NCI one-dose screening, CNS cancer SF-268; type: cell-based, human; details: 10 μM
T-47D = assay: NCI one-dose screening, breast cancer T-47D; type: cell-based, human; details: 10 μM
IGROV1 = assay: NCI one-dose screening, ovarian cancer IGROV1; type: cell-based, human; details: 10 μM
HCC-2998 = assay: NCI one-dose screening, colon cancer HCC-2998; type: cell-based, human; details: 10 μM
CCRF-CEM = assay: NCI screening platform one-dose single concentration screening, leukemia CCRF-CEM; type: cell-based, human; details: 10 μM
HOP-62 = assay: NCI one-dose screening, non-small cell lung cancer HOP-62; type: cell-based, human; details: 10 μM
SN12C = assay: NCI one-dose screening, renal cancer SN12C; type: cell-based, human; details: 10 μM
MDA-MB-231/ATCC = assay: NCI one-dose screening, breast cancer MDA-MB-231/ATCC; type: cell-based, human; details: 10 μM
M14 = assay: NCI one-dose screening, melanoma M14; type: cell-based, human; details: 10 μM
HCT-15 = assay: NCI one-dose screening, colon cancer HCT-15; type: cell-based, human; details: 10 μM
OVCAR-8 = assay: NCI one-dose screening, ovarian cancer OVCAR-8; type: cell-based, human; details: 10 μM
MOLT-4 = assay: NCI one-dose screening, leukemia MOLT-4; type: cell-based, human; details: 10 μM
PRMI-8226 cell line = assay: NCI one-dose screening, leukemia PRMI-8226; type: cell-based, human; details: 10 μM
DU145 = assay: NCI one-dose screening, prostate cancer DU145; type: cell-based, human; details: 10 μM
HS 578-T = assay: NCI one-dose screening, breast cancer HS 578-T; type: cell-based, human; details: 10 μM; Breast cancer
HOP-92 = assay: NCI one-dose screening, non-small cell lung cancer HOP-92; type: cell-based, human; details: 10 μM
786-O = assay: NCI one-dose screening, renal cancer 786-O; type: cell-based, human; details: 10 μM
[1] = test system: PC-3 prostate cancer cell line; assay: SRB assay cell viability, PC-3 prostate cancer cell line; type: cell-based, human; details: Homo sapiens, PC-3 prostate cancer cell line, Table II prints no unit, μM printed, read-out: SRB assay: 50% inhibition of cancer cell proliferation of sample concentration (IC50) of PC-3 prostate cancer cell line
NCl/ADR-RES = assay: NCI one-dose screening, breast cancer NCl/ADR-RES; type: cell-based, human; details: 10 μM; listed under Ovarian cancer
MALME-3M = assay: NCI one-dose screening, melanoma MALME-3M; type: cell-based, human; details: 10 μM
RXF, 393 = assay: NCI one-dose screening, renal cancer RXF, 393; type: cell-based, human; details: 10 μM
EKVX = assay: NCI one-dose screening, non-small cell lung cancer EKVX; type: cell-based, human; details: 10 μM
UO-31 = assay: NCI one-dose screening, renal cancer UO-31; type: cell-based, human; details: 10 μM
HL-60, TB = assay: NCI one-dose screening, leukemia HL-60, TB; type: cell-based, human; details: 10 μM
NCI-H226 = assay: NCI one-dose screening, non-small cell lung cancer NCI-H226; type: cell-based, human; details: 10 μM
SNB-19 = assay: NCI one-dose screening, CNS cancer SNB-19; type: cell-based, human; details: 10 μM
human tumor cell lines = assay: NCI one-dose screening, Mean / Delta / Range of growth percent over all tested cell lines; type: cell-based; details: 10 μM
UACC-62 = assay: NCI one-dose screening, melanoma UACC-62; type: cell-based, human; details: 10 μM
LOX IMVI = assay: NCI one-dose screening, melanoma LOX IMVI; type: cell-based, human; details: 10 μM
[2] = NCI one-dose screening, renal cancer A489; type: cell-based, human; details: 10 μM
SK-MEL-2 = assay: NCI one-dose screening, melanoma SK-MEL-2; type: cell-based, human; details: 10 μM
OVCAR-3 = assay: NCI one-dose screening, ovarian cancer OVCAR-3; type: cell-based, human; details: 10 μM
MDA-MB-468 = assay: NCI one-dose screening, breast cancer MDA-MB-468; type: cell-based, human; details: 10 μM
MDA, -MB-435 = assay: NCI one-dose screening, breast cancer MDA, -MB-435; type: cell-based, human; details: 10 μM; listed under Melanoma
SK-MEL-5 = assay: NCI one-dose screening, melanoma SK-MEL-5; type: cell-based, human; details: 10 μM
SF-539 = assay: NCI one-dose screening, CNS cancer SF-539; type: cell-based, human; details: 10 μM
SK-OV-3 = assay: NCI one-dose screening, ovarian cancer SK-OV-3; type: cell-based, human; details: 10 μM
SNB-75 = assay: NCI one-dose screening, CNS cancer SNB-75; type: cell-based, human; details: 10 μM
OVCAR-4 = assay: NCI one-dose screening, ovarian cancer OVCAR-4; type: cell-based, human; details: 10 μM
UACC-257 = assay: NCI one-dose screening, melanoma UACC-257; type: cell-based, human; details: 10 μM
BT-549 = assay: NCI one-dose screening, breast cancer BT-549; type: cell-based, human; details: 10 μM
MCF7 = assay: NCI one-dose screening, breast cancer MCF7; type: cell-based, human; details: 10 μM
SK-MEL-28 = assay: NCI one-dose screening, melanoma SK-MEL-28; type: cell-based, human; details: 10 μM
KM12 = assay: NCI one-dose screening, colon cancer KM12; type: cell-based, human; details: 10 μM
SR = assay: NCI one-dose screening, leukemia SR; type: cell-based, human; details: 10 μM
COLO 205 = assay: NCI one-dose screening, colon cancer COLO 205; type: cell-based, human; details: 10 μM
NCI-H322M = assay: NCI one-dose screening, non-small cell lung cancer NCI-H322M; type: cell-based, human; details: 10 μM; Non-small cell lung cancer
A549/ATCC = assay: NCI one-dose screening, non-small cell lung cancer A549/ATCC; type: cell-based, human; details: 10 μM
TK-10 = assay: NCI one-dose screening, renal cancer TK-10; type: cell-based, human; details: 10 μM
K562cell line = assay: NCI one-dose screening, leukemia K562; type: cell-based, human; details: 10 μM
CAKI-1 = assay: NCI one-dose screening, renal cancer CAKI-1; type: cell-based, human; details: 10 μM
SF-295 = assay: NCI one-dose screening, CNS cancer SF-295; type: cell-based, human; details: 10 μM
HCT-116 = assay: NCI one-dose screening, colon cancer HCT-116; type: cell-based, human; details: 10 μM
PC-3 = assay: NCI one-dose screening, prostate cancer PC-3; type: cell-based, human; details: 10 μM
NCI-H23 = assay: NCI one-dose screening, non-small cell lung cancer NCI-H23; type: cell-based, human; details: 10 μM

Structure (SMILES): O=C1c2ccccc2C(=O)c2c1cc(N1CCOCC1)c1nsnc21 [C10, 4-morpholino-anthra[2,1-c][1,2,5] thiadiazol-6,11-dione]
- Growth Percent NCI-H460 (NCI-H460): 88.64%
- Growth Percent NCI-H522 (NCI-H522): 79.03%
- Growth Percent U251 (U251): 59.35%
- Growth Percent SF-268 (SF-268): 75.83%
- Growth Percent T-47D (T-47D): 60.04%
- Growth Percent IGROV1 (IGROV1): 54.88%
- Growth Percent HCC-2998 (HCC-2998): 107.48%
- Growth Percent CCRF-CEM (CCRF-CEM): 48.31%
- Growth Percent HOP-62 (HOP-62): 60.63%
- Growth Percent SN12C (SN12C): 71.73%
- Growth Percent MDA-MB-231/ATCC (MDA-MB-231/ATCC): 39.16%
- Growth Percent M14 (M14): 75.06%
- Growth Percent HCT-15 (HCT-15): 55.97%
- Growth Percent OVCAR-8 (OVCAR-8): 43.29%
- Growth Percent MOLT-4 (MOLT-4): 47.64%
- Growth Percent RPMI-8226 (PRMI-8226 cell line): 61.17%
- Growth Percent DU145 (DU145): 68.98%
- Growth Percent HS 578T (HS 578-T): 88.35%
- Growth Percent HOP-92 (HOP-92): 90.59%
- Growth Percent 786-0 (786-O): 109.16%
- IC50 [1]: 3.75 µM
- Growth Percent NCI/ADR-RES (NCl/ADR-RES): 43.58%
- Growth Percent MALME-3M (MALME-3M): 61.99%
- Growth Percent RXF 393 (RXF, 393): 98.14%
- Growth Percent EKVX (EKVX): 84.52%
- Growth Percent UO-31 (UO-31): 53.93%
- Growth Percent HL-60(TB) (HL-60, TB): 66.73%
- Growth Percent NCI-H226 (NCI-H226): 87.42%
- Growth Percent SNB-19 (SNB-19): 84.82%
- Growth Percent Delta (human tumor cell lines; delta over all cell lines): 67.45%
- Growth Percent Mean (human tumor cell lines; mean over all cell lines): 67.97%
- Growth Percent Range (human tumor cell lines; range over all cell lines): 130.76%
- Growth Percent UACC-62 (UACC-62): 62.43%
- Growth Percent LOX IMVI (LOX IMVI): 13.57%
- Growth Percent A498 [2]: 88.30%
- Growth Percent SK-MEL-2 (SK-MEL-2): 88.38%
- Growth Percent OVCAR-3 (OVCAR-3): 6.64%
- Growth Percent MDA-MB-468 (MDA-MB-468): 45.59%
- Growth Percent MDA-MB-435 (MDA, -MB-435): 0.52%
- Growth Percent SK-MEL-5 (SK-MEL-5): 15.98%
- Growth Percent SF-539 (SF-539): 88.62%
- Growth Percent SK-OV-3 (SK-OV-3): 104.65%
- Growth Percent SNB-75 (SNB-75): 51.11%
- Growth Percent OVCAR-4 (OVCAR-4): 28.69%
- Growth Percent UACC-257 (UACC-257): 79.36%
- Growth Percent BT-549 (BT-549): 93.78%
- Growth Percent MCF7 (MCF7): 55.12%
- Growth Percent SK-MEL-28 (SK-MEL-28): 104.55%
- Growth Percent KM12 (KM12): 83.91%
- Growth Percent SR (SR): 68.92%
- Growth Percent COLO 205 (COLO 205): 104.19%
- Growth Percent NCI-H322M (NCI-H322M): 98.00%
- Growth Percent A549/ATCC (A549/ATCC): 100.58%
- Growth Percent TK-10 (TK-10): 131.28%
- Growth Percent K562 (K562cell line): 48.27%
- Growth Percent CAKI-1 (CAKI-1): 61.73%
- melting point: 259 to 260 °C
- Growth Percent SF-295 (SF-295): 95.84. Percent
- Growth Percent HCT-116 (HCT-116): 18.89%
- Growth Percent PC-3 (PC-3): 56.59%
- Growth Percent NCI-H23 (NCI-H23): 39.65%
